Reference: the supplement of paper PMC10307832

Columns and labels:
Assay in all cases: relative viability (nuclei count vs DMSO), 5 days (fraction); higher = more cells survive
[1] = system: BEN
Summary of the method: (§1)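 For relative viability, nuclei counts in treated wells were divided by those in vehicle wells. Lung cancer cell lines had been pin-tool dosed in 1536-well plates the day after seeding and cultured for 5 days, then fixed and stained in one step (final 0.05% Triton X-100, 1% formaldehyde, 1 ug/ml Hoechst) and imaged at 4×. Doses were one drug alone or a fixed anchor-drug dose plus five library-drug doses (not always all listed) in √10 steps, and values are duplicate-plate medians.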

[2] = system: EKVX
Summary of the method: as §1

[3] = system: HARA
Summary of the method: as §1

[4] = system: HCC-366
Summary of the method: as §1

[5] = system: HCC-44
Summary of the method: as §1

[6] = system: HCC-827
Summary of the method: as §1

[7] = system: LC-2-ad
Summary of the method: as §1

[8] = system: LOU-NH91
Summary of the method: as §1

[9] = system: NCI-H1355
Summary of the method: as §1

[10] = system: NCI-H1395
Summary of the method: as §1

[11] = system: NCI-H1437
Summary of the method: as §1

[12] = system: NCI-H1734
Summary of the method: as §1

[13] = system: NCI-H1792
Summary of the method: as §1

[14] = system: NCI-H2009
Summary of the method: as §1

[15] = system: NCI-H2087
Summary of the method: as §1

[16] = system: NCI-H2228
Summary of the method: as §1

[17] = system: NCI-H2405
Summary of the method: as §1

[18] = system: NCI-H596
Summary of the method: as §1

[19] = system: NCI-H647
Summary of the method: as §1

[20] = system: NCI-H661
Summary of the method: as §1

[21] = system: SK-LU-1
Summary of the method: as §1

[22] = system: SK-MES-1
Summary of the method: as §1

Clc1ccc(Nc2nnc(Cc3ccncc3)c3ccccc23)cc1 [Vatalanib] + C[C@]1(O)C[C@@H](c2nc(-c3ccc4ccc(-c5ccccc5)nc4c3)c3c(N)nccn32)C1 [Linsitinib] (partner 1 µM)
relative viability ([1]; first compound 0.04 µM): 0.992
relative viability ([1]; first compound 0.1265 µM): 0.785
relative viability ([1]; first compound 0.4 µM): 0.99
relative viability ([1]; first compound 1.265 µM): 0.943
relative viability ([1]; first compound 4 µM): 0.97
relative viability ([2]; first compound 0.04 µM): 1.03
relative viability ([2]; first compound 0.1265 µM): 0.89
relative viability ([2]; first compound 0.4 µM): 0.941
relative viability ([2]; first compound 1.265 µM): 0.814
relative viability ([2]; first compound 4 µM): 0.776
relative viability ([3]; first compound 0.04 µM): 1.02
relative viability ([3]; first compound 0.1265 µM): 0.896
relative viability ([3]; first compound 0.4 µM): 1
relative viability ([3]; first compound 1.265 µM): 0.84
relative viability ([3]; first compound 4 µM): 0.838
relative viability ([4]; first compound 0.04 µM): 0.722
relative viability ([4]; first compound 0.1265 µM): 0.456
relative viability ([4]; first compound 0.4 µM): 0.725
relative viability ([4]; first compound 1.265 µM): 0.542
relative viability ([4]; first compound 4 µM): 0.609
relative viability ([5]; first compound 0.04 µM): 0.683
relative viability ([5]; first compound 0.1265 µM): 0.643
relative viability ([5]; first compound 0.4 µM): 0.676
relative viability ([5]; first compound 1.265 µM): 0.636
relative viability ([5]; first compound 4 µM): 0.679
relative viability ([6]; first compound 0.04 µM): 0.992
relative viability ([6]; first compound 0.1265 µM): 0.925
relative viability ([6]; first compound 0.4 µM): 0.95
relative viability ([6]; first compound 1.265 µM): 0.936
relative viability ([6]; first compound 4 µM): 0.905
relative viability ([7]; first compound 0.04 µM): 0.916
relative viability ([7]; first compound 0.1265 µM): 0.799
relative viability ([7]; first compound 0.4 µM): 0.971
relative viability ([7]; first compound 1.265 µM): 0.841
relative viability ([7]; first compound 4 µM): 0.883
relative viability ([8]; first compound 0.04 µM): 1.02
relative viability ([8]; first compound 0.1265 µM): 0.921
relative viability ([8]; first compound 0.4 µM): 0.757
relative viability ([8]; first compound 1.265 µM): 0.913
relative viability ([8]; first compound 4 µM): 0.89
relative viability ([9]; first compound 0.04 µM): 0.87
relative viability ([9]; first compound 0.1265 µM): 0.818
relative viability ([9]; first compound 0.4 µM): 0.915
relative viability ([9]; first compound 1.265 µM): 0.772
relative viability ([9]; first compound 4 µM): 0.763
relative viability ([10]; first compound 0.04 µM): 1.14
relative viability ([10]; first compound 0.1265 µM): 0.99
relative viability ([10]; first compound 0.4 µM): 1.63
relative viability ([10]; first compound 1.265 µM): 0.998
relative viability ([10]; first compound 4 µM): 0.86
relative viability ([11]; first compound 0.04 µM): 1.09
relative viability ([11]; first compound 0.1265 µM): 1.03
relative viability ([11]; first compound 0.4 µM): 1.14
relative viability ([11]; first compound 1.265 µM): 0.956
relative viability ([11]; first compound 4 µM): 1.08
relative viability ([12]; first compound 0.04 µM): 0.971
relative viability ([12]; first compound 0.1265 µM): 0.866
relative viability ([12]; first compound 0.4 µM): 1.03
relative viability ([12]; first compound 1.265 µM): 0.886
relative viability ([12]; first compound 4 µM): 0.859
relative viability ([13]; first compound 0.04 µM): 0.465
relative viability ([13]; first compound 0.1265 µM): 0.494
relative viability ([13]; first compound 0.4 µM): 0.506
relative viability ([13]; first compound 1.265 µM): 0.493
relative viability ([13]; first compound 4 µM): 0.515
relative viability ([14]; first compound 0.04 µM): 1.16
relative viability ([14]; first compound 0.1265 µM): 1.04
relative viability ([14]; first compound 0.4 µM): 1.3
relative viability ([14]; first compound 1.265 µM): 1.16
relative viability ([14]; first compound 4 µM): 1.18
relative viability ([15]; first compound 0.04 µM): 1.2
relative viability ([15]; first compound 0.1265 µM): 0.87
relative viability ([15]; first compound 0.4 µM): 1.04
relative viability ([15]; first compound 1.265 µM): 0.908
relative viability ([15]; first compound 4 µM): 1.05
relative viability ([16]; first compound 0.04 µM): 0.825
relative viability ([16]; first compound 0.1265 µM): 0.508
relative viability ([16]; first compound 0.4 µM): 0.83
relative viability ([16]; first compound 1.265 µM): 0.664
relative viability ([16]; first compound 4 µM): 0.761
relative viability ([17]; first compound 0.04 µM): 0.951
relative viability ([17]; first compound 0.1265 µM): 0.901
relative viability ([17]; first compound 1.265 µM): 0.868
relative viability ([17]; first compound 4 µM): 0.93
relative viability ([18]; first compound 0.04 µM): 1.18
relative viability ([18]; first compound 0.1265 µM): 1.13
relative viability ([18]; first compound 0.4 µM): 0.951
relative viability ([18]; first compound 1.265 µM): 1.14
relative viability ([18]; first compound 4 µM): 1.08
relative viability ([19]; first compound 0.04 µM): 1.02
relative viability ([19]; first compound 0.1265 µM): 1.14
relative viability ([19]; first compound 0.4 µM): 1.2
relative viability ([19]; first compound 1.265 µM): 1.21
relative viability ([19]; first compound 4 µM): 1.09
relative viability ([20]; first compound 0.04 µM): 0.59
relative viability ([20]; first compound 0.1265 µM): 0.477
relative viability ([20]; first compound 0.4 µM): 0.616
relative viability ([20]; first compound 1.265 µM): 0.581
relative viability ([20]; first compound 4 µM): 0.581
relative viability ([21]; first compound 0.04 µM): 1.45
relative viability ([21]; first compound 0.1265 µM): 1.13
relative viability ([21]; first compound 0.4 µM): 1.28
relative viability ([21]; first compound 1.265 µM): 1.04
relative viability ([21]; first compound 4 µM): 1.03
relative viability ([22]; first compound 0.04 µM): 1.04
relative viability ([22]; first compound 0.1265 µM): 1.03
relative viability ([22]; first compound 0.4 µM): 1.17
relative viability ([22]; first compound 1.265 µM): 1.02
relative viability ([22]; first compound 4 µM): 0.928
